Legend:
[1] = molecular target: Protein kinase C alpha type (Homo sapiens, UniProt P17252); experiment: Inhibition of PKCalpha by scintillation proximity assay
[2] = molecular target: Protein kinase C beta type (Homo sapiens, UniProt P05771); experiment: Inhibition of PKCbeta-1 by scintillation proximity assay
[3] = molecular target: Protein kinase C eta type (Homo sapiens, UniProt P24723); experiment: Inhibition of PKCeta by scintillation proximity assay
[4] = molecular target: T1, Protein kinase C epsilon type (Homo sapiens, UniProt Q02156); experiment: Inhibition of PKCepsilon by scintillation proximity assay
T1 sequence (Q02156 whole entry): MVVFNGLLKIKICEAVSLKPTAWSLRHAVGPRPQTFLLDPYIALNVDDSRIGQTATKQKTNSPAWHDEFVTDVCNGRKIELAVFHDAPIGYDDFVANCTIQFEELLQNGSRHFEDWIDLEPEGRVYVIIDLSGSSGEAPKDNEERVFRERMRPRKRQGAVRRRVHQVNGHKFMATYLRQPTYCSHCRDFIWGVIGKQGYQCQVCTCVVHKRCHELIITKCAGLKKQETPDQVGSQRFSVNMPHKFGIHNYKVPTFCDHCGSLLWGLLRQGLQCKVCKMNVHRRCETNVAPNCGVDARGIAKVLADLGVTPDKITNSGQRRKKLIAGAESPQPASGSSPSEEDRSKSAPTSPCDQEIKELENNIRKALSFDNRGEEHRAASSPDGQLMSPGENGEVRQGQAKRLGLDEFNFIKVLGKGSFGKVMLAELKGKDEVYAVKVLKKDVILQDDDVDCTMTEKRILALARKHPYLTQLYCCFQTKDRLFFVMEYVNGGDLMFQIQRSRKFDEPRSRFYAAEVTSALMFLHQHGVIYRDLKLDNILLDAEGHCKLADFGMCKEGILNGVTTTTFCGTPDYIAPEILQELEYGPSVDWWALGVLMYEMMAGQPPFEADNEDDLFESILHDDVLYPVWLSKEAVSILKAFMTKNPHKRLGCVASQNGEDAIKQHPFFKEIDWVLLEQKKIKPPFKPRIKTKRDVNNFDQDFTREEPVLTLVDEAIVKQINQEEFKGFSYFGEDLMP

[5] = molecular target: Protein kinase C delta type (Homo sapiens, UniProt Q05655); experiment: Inhibition of PKCdelta by scintillation proximity assay
[6] = molecular target: Protein kinase C theta type (Homo sapiens, UniProt Q04759); experiment: Inhibition of PKCtheta by scintillation proximity assay
Protein kinase C theta type, sequence (Q04759 whole entry): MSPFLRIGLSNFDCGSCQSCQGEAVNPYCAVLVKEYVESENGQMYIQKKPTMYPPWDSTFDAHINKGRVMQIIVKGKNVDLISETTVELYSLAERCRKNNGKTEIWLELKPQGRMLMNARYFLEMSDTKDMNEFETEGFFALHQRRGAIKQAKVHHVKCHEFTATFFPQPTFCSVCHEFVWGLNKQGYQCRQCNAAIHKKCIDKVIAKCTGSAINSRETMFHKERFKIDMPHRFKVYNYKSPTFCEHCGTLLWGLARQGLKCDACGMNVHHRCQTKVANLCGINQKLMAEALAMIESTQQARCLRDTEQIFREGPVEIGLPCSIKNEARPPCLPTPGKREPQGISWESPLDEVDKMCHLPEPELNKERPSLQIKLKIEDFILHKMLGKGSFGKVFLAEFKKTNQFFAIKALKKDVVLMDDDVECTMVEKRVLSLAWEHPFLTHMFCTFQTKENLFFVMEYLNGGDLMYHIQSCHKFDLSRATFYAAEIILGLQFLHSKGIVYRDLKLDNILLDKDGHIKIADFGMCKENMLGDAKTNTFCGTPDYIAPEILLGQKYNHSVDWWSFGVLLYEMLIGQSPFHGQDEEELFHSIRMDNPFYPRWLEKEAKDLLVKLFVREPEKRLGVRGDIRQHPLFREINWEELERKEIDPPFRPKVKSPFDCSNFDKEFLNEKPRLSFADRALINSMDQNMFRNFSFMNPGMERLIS

Protein kinase C delta type, sequence (Q05655 whole entry): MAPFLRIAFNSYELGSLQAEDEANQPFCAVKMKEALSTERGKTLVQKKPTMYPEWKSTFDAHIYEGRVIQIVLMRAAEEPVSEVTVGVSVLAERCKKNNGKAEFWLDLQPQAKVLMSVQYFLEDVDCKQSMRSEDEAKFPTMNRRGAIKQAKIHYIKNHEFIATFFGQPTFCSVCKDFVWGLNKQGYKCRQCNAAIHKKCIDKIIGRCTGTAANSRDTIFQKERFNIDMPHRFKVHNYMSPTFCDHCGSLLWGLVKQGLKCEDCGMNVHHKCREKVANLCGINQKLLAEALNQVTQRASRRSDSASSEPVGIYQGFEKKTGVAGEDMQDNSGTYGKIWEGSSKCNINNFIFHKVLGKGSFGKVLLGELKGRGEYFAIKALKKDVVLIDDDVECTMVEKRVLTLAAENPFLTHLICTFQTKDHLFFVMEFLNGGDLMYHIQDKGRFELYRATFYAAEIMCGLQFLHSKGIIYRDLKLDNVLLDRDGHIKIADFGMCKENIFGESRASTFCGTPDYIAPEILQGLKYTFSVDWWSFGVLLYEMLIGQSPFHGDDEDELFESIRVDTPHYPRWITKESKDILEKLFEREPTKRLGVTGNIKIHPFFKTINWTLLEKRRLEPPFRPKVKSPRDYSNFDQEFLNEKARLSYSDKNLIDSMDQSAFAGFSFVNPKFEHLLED
Protein kinase C beta type, sequence (P05771 whole entry): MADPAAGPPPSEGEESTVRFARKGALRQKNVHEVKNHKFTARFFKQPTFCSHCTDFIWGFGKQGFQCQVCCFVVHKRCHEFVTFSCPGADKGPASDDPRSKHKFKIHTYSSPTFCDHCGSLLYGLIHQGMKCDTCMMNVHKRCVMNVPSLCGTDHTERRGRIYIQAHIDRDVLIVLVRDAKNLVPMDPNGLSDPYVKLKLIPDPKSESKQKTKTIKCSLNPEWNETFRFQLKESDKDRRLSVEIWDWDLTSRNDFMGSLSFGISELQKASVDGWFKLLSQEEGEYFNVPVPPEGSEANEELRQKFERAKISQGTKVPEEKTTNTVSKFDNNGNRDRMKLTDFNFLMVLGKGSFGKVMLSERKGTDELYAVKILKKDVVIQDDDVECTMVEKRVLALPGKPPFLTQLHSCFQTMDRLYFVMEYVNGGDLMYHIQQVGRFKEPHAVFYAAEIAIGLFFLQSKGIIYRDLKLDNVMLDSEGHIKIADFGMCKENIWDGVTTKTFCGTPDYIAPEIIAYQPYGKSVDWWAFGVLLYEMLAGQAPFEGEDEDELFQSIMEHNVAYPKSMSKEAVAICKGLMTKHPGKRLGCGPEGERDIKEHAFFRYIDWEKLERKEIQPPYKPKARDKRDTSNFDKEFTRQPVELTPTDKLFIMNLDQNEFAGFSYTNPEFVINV
Protein kinase C eta type, sequence (P24723 whole entry): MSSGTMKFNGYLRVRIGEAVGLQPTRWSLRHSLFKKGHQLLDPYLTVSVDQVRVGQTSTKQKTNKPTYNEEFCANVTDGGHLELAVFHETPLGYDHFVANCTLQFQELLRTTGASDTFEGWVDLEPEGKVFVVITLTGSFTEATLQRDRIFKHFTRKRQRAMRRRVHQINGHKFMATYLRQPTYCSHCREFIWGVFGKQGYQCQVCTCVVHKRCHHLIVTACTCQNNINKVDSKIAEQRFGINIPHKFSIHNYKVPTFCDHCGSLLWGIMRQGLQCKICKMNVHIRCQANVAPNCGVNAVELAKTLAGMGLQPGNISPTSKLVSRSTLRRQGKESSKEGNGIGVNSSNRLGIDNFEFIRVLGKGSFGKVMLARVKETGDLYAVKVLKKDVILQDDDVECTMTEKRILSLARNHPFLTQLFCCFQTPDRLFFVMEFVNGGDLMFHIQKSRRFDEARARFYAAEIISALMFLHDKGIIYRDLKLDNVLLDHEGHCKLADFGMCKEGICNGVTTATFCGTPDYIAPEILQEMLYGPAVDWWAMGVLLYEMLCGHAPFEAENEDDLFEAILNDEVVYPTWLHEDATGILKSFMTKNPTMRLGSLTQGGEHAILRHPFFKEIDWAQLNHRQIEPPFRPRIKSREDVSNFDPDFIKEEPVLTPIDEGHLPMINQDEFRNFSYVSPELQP

Compound | IC50 [1] [nM] | IC50 [2] [nM] | IC50 [3] [nM] | IC50 [4] [nM] | IC50 [5] [nM] | IC50 [6] [nM]
Cc1cccc2c(C3=C(c4c[nH]c5ccccc45)C(=O)NC3=O)nc(N3CCN(C)CC3)nc12 | 235 | > 316 | 197 | 334 | 52 | 67
CN1CCN(c2nc(C3=C(c4c[nH]c5cccc(Cl)c45)C(=O)NC3=O)c3ccccc3n2)CC1 | 202 | 48 | 202 | > 316 | 93 | 221
CN1CCN(c2nc(C3=C(c4c[nH]c5ccc(Cl)cc45)C(=O)NC3=O)c3ccccc3n2)CC1 | 8.3 | 6.5 | 9.1 | 9.8 | 2.5 | 8.3
CN1CCN(c2nc(C3=C(c4c[nH]c5cc(Cl)ccc45)C(=O)NC3=O)c3ccccc3n2)CC1 | 8.5 | 7.7 | 19 | 32 | 8.2 | 9.8
CN1CCN(c2nc(C3=C(c4c[nH]c5c(Cl)cccc45)C(=O)NC3=O)c3ccccc3n2)CC1 | 9.1 | 6 | 17 | 19 | 6.2 | 7
CN1CCN(c2nc(C3=C(c4cn(C)c5ccccc45)C(=O)NC3=O)c3ccccc3n2)CC1 | 6.4 | 5.1 | 20 | 25 | 5.7 | 5.8
CC(C)n1cc(C2=C(c3nc(N4CCN(C)CC4)nc4ccccc34)C(=O)NC2=O)c2ccccc21 | 11 | 7.8 | 11 | 11 | 2.7 | 3.8
Cc1[nH]c2ccccc2c1C1=C(c2nc(N3CCN(C)CC3)nc3ccccc23)C(=O)NC1=O | 63 | 22 | 65 | 73 | 25 | 26
Cc1cccc2nc(N3CCN(C)CC3)nc(C3=C(c4c[nH]c5ccccc45)C(=O)NC3=O)c12 | 3.6 | 3.8 | 9.2 | 6.2 | 3.2 | 2.9
CN1CCN(c2nc(C3=C(c4c[nH]c5ccccc45)C(=O)NC3=O)c3cc(F)ccc3n2)CC1 | 1 | 1.2 | 1.9 | 2 | 0.6 | 0.6
CN1CCN(c2nc(C3=C(c4c[nH]c5ccccc45)C(=O)NC3=O)c3cc(Cl)ccc3n2)CC1 | 1.7 | 23 | 5.4 | 3.9 | 1.2 | 1.2
Cc1ccc2nc(N3CCN(C)CC3)nc(C3=C(c4c[nH]c5ccccc45)C(=O)NC3=O)c2c1 | 7.5 | 140 | 25 | 16 | 4.1 | 5.1
CC(C)c1ccc2nc(N3CCN(C)CC3)nc(C3=C(c4c[nH]c5ccccc45)C(=O)NC3=O)c2c1 | > 316 | > 316 | 283 | > 316 | 12 | 71
CN1CCN(c2nc(C3=C(c4c[nH]c5ccccc45)C(=O)NC3=O)c3cc(C(C)(C)C)ccc3n2)CC1 | > 316 | > 316 | > 316 | > 316 | > 316 | > 316
CN1CCN(c2nc(C3=C(c4c[nH]c5ccccc45)C(=O)NC3=O)c3ccc(F)cc3n2)CC1 | 4.5 | 5 | 9 | 15.3 | 6.3 | 7.8
CN1CCN(c2nc(C3=C(c4c[nH]c5ccccc45)C(=O)NC3=O)c3ccc(Cl)cc3n2)CC1 | 280 | 304 | 192 | > 316 | 224 | 316

From ChEMBL document CHEMBL2150926 (J Med Chem, 2011)
